We go through 19 molecules from PMC4549708, “Inhibition of neuraminidase by Ganoderma triterpenoids and implications for neuraminidase inhibitor design” (Scientific Reports, 2015).

The target in one data set is NA (H1N1,09) (Influenza A virus, UniProt C3W5S3). The data set is described as follows: biochemical. As to conditions: for inhibition at 200 µM: 200 μM of each compound, n = 3, means ± standard deviation, read-out: Inhibition rate (%) NA(H1N1,09).
A short description of a further data set: in vitro. As to conditions: human.
For the next data set, the target named is NA (H5N1) (Influenza A virus, UniProt K0C216). The data set is described as follows: biochemical. The conditions noted are these: read-out: Inhibition rate (%) NA (H5N1).
For a further data set, the system named is NA (H7N9). Type of data set: biochemical. The conditions noted are these: 200 µM.

Where only a bound is given, the exact number is not on record here.

Broadly, the inhibition is how much of the control response was suppressed. For `CC(CC(=O)C[C@@H](C)[C@H]1CC(=O)[C@@]2(C)C3=C(C(=O)[C@@H](O)[C@]12C)[C@@]1(C)CC[C@H](O)C(C)(C)[C@@H]1CC3=O)C(=O)O` (stereo partly shown) [Compound 18, Ganoderic acid C6], the inhibition at 200 µM worked out at 17.8 ± 1.2% at NA (H1N1,09) and 15.6 ± 22.3% on NA (H5N1). The molecule further registered a CC50 in “in vitro” of more than 200 µM. In the data set with NA (H7N9), the “Inhibition rate (%) NA(H7N9)” value is 25.7 ± 1.3%.
The corresponding values for `CC(=O)O[C@@H]1C(=O)C2=C(C(=O)C[C@H]3C(C)(C)[C@@H](O)CC[C@]23C)[C@]2(C)C(=O)C[C@H]([C@H](C)CC(=O)CC(C)C(=O)O)[C@@]12C` (stereo partly shown) [Compound 13, Ganoderic acid H] are 35 ± 4.5%, 64.1 ± 4.5%, more than 200 µM and 27.2 ± 3.2%.
In the same order, the values of `C/C(=C\[C@@H](O)C[C@@H](C)[C@H]1CC(=O)[C@@]2(C)C3=C(C(=O)C[C@]12C)[C@@]1(C)CCC(=O)C(C)(C)[C@@H]1C[C@@H]3O)C(=O)O` [Compound 23, Ganoderic acid LM2] are 40.9 ± 6.2%, 67.1 ± 5.2%, more than 200 µM and 12.7 ± 9.6%.
Consider `CC(CC(=O)C[C@@H](C)[C@H]1C[C@H](O)[C@@]2(C)C3=C(C(=O)C[C@]12C)[C@@]1(C)CCC(=O)C(C)(C)[C@@H]1CC3)C(=O)O` (stereo partly shown) [Compound 21, Ganolucidic acid A], for which the values for the inhibition at 200 µM on NA (H1N1,09) and at NA (H5N1) were 19.4 ± 2.7% and 49.8 ± 7.7%, respectively. The molecule also showed a CC50 in the data set “in vitro” of more than 200 µM. For the same molecule, in the data set on NA (H7N9), the “Inhibition rate (%) NA(H7N9)” value is recorded as 16.7 ± 3.4%.
Turning to `C[C@H](CC[C@H](O)[C@](C)(O)CO)[C@H]1CC[C@@]2(C)C3=CC[C@H]4C(C)(C)C(=O)CC[C@]4(C)C3=CC[C@]12C` [Compound 29, Ganodermanontriol], the inhibition at 200 µM at NA (H1N1,09) is 35.3 ± 5.2%; at NA (H5N1), 60.5 ± 6.8%. Also, the CC50 in the data set “in vitro” is more than 200 µM. The “Inhibition rate (%) NA(H7N9)” value with NA (H7N9) amounted to 10.3 ± 3.5%.
For the molecule `C/C(=C\C(=O)CC(C)C(=O)O)[C@H]1CC(=O)[C@@]2(C)C3=C(C(=O)C[C@]12C)[C@@]1(C)CC[C@H](O)C(C)(C)[C@@H]1CC3=O` (stereo partly shown) [Compound 12, Ganoderenic acid H], the values for the inhibition at 200 µM at NA (H1N1,09) and at NA (H5N1) were 58 ± 3% and 77.7 ± 3.9%, respectively. The same molecule came in with a CC50 in “in vitro” of more than 200 µM. Also, the “Inhibition rate (%) NA(H7N9)” value in the data set on NA (H7N9) was 38.6 ± 6.2%.
Consider `CC(=O)O[C@@H]1C(=O)C2=C([C@@H](O)C[C@H]3C(C)(C)[C@@H](O)CC[C@]23C)[C@]2(C)C(=O)C[C@H]([C@H](C)CC(=O)CC(C)C(=O)O)[C@@]12C` (stereo partly shown) [Compound 11, Ganoderic acid K], for which the inhibition at 200 µM came out at 28.8 ± 2% on NA (H1N1,09) and 57.7 ± 10.9% on NA (H5N1). In the data set “in vitro”, this molecule registered a CC50 of more than 200 µM. The “Inhibition rate (%) NA(H7N9)” value with NA (H7N9) came to 28.5 ± 1.9%.
On to `C/C(=C\C(=O)CC(C)C(=O)O)[C@H]1C[C@H](O)[C@@]2(C)C3=C(C(=O)C[C@]12C)[C@@]1(C)CCC(=O)C(C)(C)[C@@H]1C[C@@H]3O` (stereo partly shown) [Compound 8, Ganoderenic acid A], for which the inhibition at 200 µM on NA (H1N1,09) was 35.3 ± 3.7%; at NA (H5N1) it was 35.9 ± 7.7%. In addition, the CC50 in “in vitro” was more than 200 µM. Also, in the data set on NA (H7N9), the “Inhibition rate (%) NA(H7N9)” value is 23.3 ± 3.1%.
`C[C@H](CC[C@H](O)C(C)(C)O)[C@H]1CC[C@@]2(C)C3=CC[C@H]4C(C)(C)C(=O)CC[C@]4(C)C3=CC[C@]12C` [Compound 28, Ganodermanondiol] displayed a CC50 in “in vitro” of 64.9 ± 10 µM. The inhibition at 200 µM on NA (H5N1) stood at 87.9 ± 1.8%. The “Inhibition rate (%) NA(H7N9)” value in the data set on NA (H7N9) stood at 24.3 ± 1.7%.
With `C/C(=C\C(=O)CC(C)C(=O)O)[C@H]1CC(=O)[C@@]2(C)C3=C(C(=O)C[C@]12C)[C@@]1(C)CCC(=O)C(C)(C)[C@@H]1CC3=O` (stereo partly shown) [Compound 15, Ganoderenic acid F], the inhibition at 200 µM is 53.1 ± 1.6% at NA (H1N1,09) and 62.8 ± 4% at NA (H5N1). Further, the CC50 in “in vitro” came to 111 ± 17.9 µM. Also, in the data set with NA (H7N9), the “Inhibition rate (%) NA(H7N9)” value worked out at 34.2 ± 4.7%.
Take `C/C(=C\CC[C@@H](C)[C@H]1CC[C@@]2(C)C3=CC[C@H]4C(C)(C)[C@@H](O)CC[C@]4(C)C3=CC[C@]12C)CO` [Compound 26, Ganoderol B]: the inhibition at 200 µM stood at 51 ± 2.6% at NA (H1N1,09) and 71.6 ± 2.1% at NA (H5N1). Moreover, the CC50 in the data set “in vitro” is more than 200 µM. Further, the “Inhibition rate (%) NA(H7N9)” value with NA (H7N9) is reported as 21.8 ± 3.5%.
Take `C[C@H](CC(=O)C[C@@H](C)[C@H]1C[C@H](O)[C@@]2(C)C3=C(C(=O)C[C@]12C)[C@@]1(C)CC[C@H](O)C(C)(C)[C@@H]1C[C@@H]3O)C(=O)O` [Compound 9, Ganoderic acid C2]: the inhibition at 200 µM at NA (H1N1,09) was 32.4 ± 4.5%; at NA (H5N1), 60.8 ± 4.3%. In addition, the CC50 in the data set “in vitro” was more than 200 µM. Moreover, the “Inhibition rate (%) NA(H7N9)” value in the data set with NA (H7N9) worked out at 27.5 ± 2.3%.
As to `CC(=O)O[C@@H]1C(=O)C2=C(C(=O)C[C@H]3C(C)(C)C(=O)CC[C@]23C)[C@]2(C)C(=O)C[C@H]([C@H](C)CC(=O)CC(C)C(=O)O)[C@@]12C` (stereo partly shown) [Compound 24, Ganoderic acid F], the values for the inhibition at 200 µM on NA (H1N1,09) and at NA (H5N1) were 12.9 ± 11.4% and 48.6 ± 7.4%, respectively. In addition, in the data set “in vitro”, the CC50 was more than 200 µM. In addition, the “Inhibition rate (%) NA(H7N9)” value in the data set with NA (H7N9) is reported as 14.8 ± 2.6%.
For orientation: IC50 means the concentration at which inhibition is half-maximal. A high value points to weaker potency in that assay. Turning to `C/C(=C/CC[C@@H](C)[C@H]1CC[C@@]2(C)C3=CC[C@H]4C(C)(C)C(=O)CC[C@]4(C)C3=CC[C@]12C)C(=O)O` [Compound 5, Ganoderic acid S], the results for the inhibition at 200 µM at NA (H1N1,09) and at NA (H5N1) were 69.4 ± 2.3% and 86.7 ± 0.5%, respectively. On NA (H1N1,09) (in vitro NA inhibition assay (n = 3)), the IC50 is 80.5 ± 24.9 µM. The CC50 in the data set “in vitro” was found to be 80.9 ± 6.8 µM. In addition, the “Inhibition rate (%) NA(H7N9)” value in the data set with NA (H7N9) is recorded as 31.9 ± 2.3%.
Take `C/C(=C\CC[C@@H](C)[C@H]1CC[C@@]2(C)C3=CC[C@H]4C(C)(C)C(=O)CC[C@]4(C)C3=CC[C@]12C)CO` [Compound 25, Ganoderol A]: the inhibition at 200 µM on NA (H1N1,09) worked out at 48.3 ± 2.2%; on NA (H5N1), 77.1 ± 0.4%. Moreover, the CC50 in the data set “in vitro” is 20.4 ± 0.9 µM. Also, the “Inhibition rate (%) NA(H7N9)” value in the data set with NA (H7N9) turned out to be 15.9 ± 3.7%.
The corresponding values for `CC(CC(=O)C[C@@H](C)[C@H]1CC(=O)[C@@]2(C)C3=C(C(=O)C[C@]12C)[C@@]1(C)CC[C@H](O)C(C)(C)[C@@H]1C[C@@H]3O)C(=O)O` (stereo partly shown) [Compound 14, Ganoderic acid B] are 6.9 ± 6.8%, 3 ± 1%, more than 200 µM and 5.5 ± 0.4%.
In the same order, the values of `CC(CC(=O)C[C@@H](C)[C@H]1CC(=O)[C@@]2(C)C3=C(C(=O)C[C@]12C)[C@@]1(C)CC[C@H](O)C(C)(C)[C@@H]1CC3=O)C(=O)O` (stereo partly shown) [Compound 10, Ganoderic acid AM1] are 28.3 ± 6.2%, 75.2 ± 2.3%, more than 200 µM and 14.1 ± 5.1%.
For `C/C(=C\CC[C@@H](C)[C@H]1CC[C@@]2(C)C3=CC[C@H]4C(C)(C)[C@@H](O)CC[C@]4(C)C3=CC[C@]12C)C(=O)O` [Compound 6, Ganoderic acid Y], the inhibition at 200 µM on NA (H1N1,09) is 63 ± 2.5%; on NA (H5N1), 78.2 ± 3.2%. The molecule further yielded a CC50 in “in vitro” of 18 ± 1.3 µM. Also, the “Inhibition rate (%) NA(H7N9)” value with NA (H7N9) turned out to be 17.8 ± 1.5%.
Take `C[C@H](CCC=C(CO)CO)[C@H]1CC[C@@]2(C)C3=CC[C@H]4C(C)(C)C(=O)CC[C@]4(C)C3=CC[C@]12C` [Compound 27, Ganoderiol F]: the inhibition at 200 µM on NA (H1N1,09) was 52.9 ± 2%; at NA (H5N1), 33.6 ± 12.1%. Moreover, the CC50 in the data set “in vitro” is more than 200 µM. In addition, the “Inhibition rate (%) NA(H7N9)” value with NA (H7N9) was 29.5 ± 4.3%.
